According to ChEMBL document CHEMBL1131710, “N-substituted-3-arylpyrrolidines: potent and selective ligands at serotonin 1A receptor” (Bioorg Med Chem Lett, 1999):

What was measured:
Assay type in all cases: tissue-based
[1] = biological target: 5-hydroxytryptamine receptor 2A (Rattus norvegicus, UniProt P14842); assay: In vitro binding affinity against 5-HT2A receptor of rat cerebral cortex using [3H]ketanserin
[2] = biological target: T1, 5-hydroxytryptamine receptor 1A (Rattus norvegicus, UniProt P19327); assay: In vitro binding affinity against 5-HT1A receptor of rat hippocampus using [3H]8-OH-DPAT
T1 sequence (P19327 whole entry): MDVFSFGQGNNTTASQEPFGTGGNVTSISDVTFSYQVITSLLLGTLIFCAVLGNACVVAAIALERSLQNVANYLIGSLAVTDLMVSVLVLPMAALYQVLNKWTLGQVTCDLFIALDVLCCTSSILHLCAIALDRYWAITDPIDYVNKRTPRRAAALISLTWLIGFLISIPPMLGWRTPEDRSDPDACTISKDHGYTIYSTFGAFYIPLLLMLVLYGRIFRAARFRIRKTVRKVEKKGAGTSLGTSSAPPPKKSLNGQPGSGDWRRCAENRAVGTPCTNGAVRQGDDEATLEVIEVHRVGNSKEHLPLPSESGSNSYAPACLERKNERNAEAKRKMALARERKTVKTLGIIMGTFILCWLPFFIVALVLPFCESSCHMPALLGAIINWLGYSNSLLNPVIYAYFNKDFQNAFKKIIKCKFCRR

[3] = biological target: T2, Adrenergic receptor alpha-2 (Rattus norvegicus, UniProt P22086+P19328+P22909); assay: In vitro binding affinity against Alpha-2 adrenergic receptor of rat cerebral cortex using [3H]RX-821002
T2 sequence (P22086 whole entry): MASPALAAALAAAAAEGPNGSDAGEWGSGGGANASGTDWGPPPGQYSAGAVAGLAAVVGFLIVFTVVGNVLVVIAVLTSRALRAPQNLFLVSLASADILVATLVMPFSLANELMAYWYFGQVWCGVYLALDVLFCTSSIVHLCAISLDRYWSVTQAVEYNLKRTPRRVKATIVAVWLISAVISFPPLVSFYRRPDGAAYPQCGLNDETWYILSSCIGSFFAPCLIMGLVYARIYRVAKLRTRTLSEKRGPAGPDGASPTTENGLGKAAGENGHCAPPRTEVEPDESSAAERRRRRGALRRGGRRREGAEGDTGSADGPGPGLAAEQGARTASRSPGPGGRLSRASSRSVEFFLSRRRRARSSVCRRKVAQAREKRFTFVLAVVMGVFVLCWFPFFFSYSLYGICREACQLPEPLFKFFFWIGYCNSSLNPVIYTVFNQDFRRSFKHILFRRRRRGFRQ
T2 sequence (P19328 whole entry): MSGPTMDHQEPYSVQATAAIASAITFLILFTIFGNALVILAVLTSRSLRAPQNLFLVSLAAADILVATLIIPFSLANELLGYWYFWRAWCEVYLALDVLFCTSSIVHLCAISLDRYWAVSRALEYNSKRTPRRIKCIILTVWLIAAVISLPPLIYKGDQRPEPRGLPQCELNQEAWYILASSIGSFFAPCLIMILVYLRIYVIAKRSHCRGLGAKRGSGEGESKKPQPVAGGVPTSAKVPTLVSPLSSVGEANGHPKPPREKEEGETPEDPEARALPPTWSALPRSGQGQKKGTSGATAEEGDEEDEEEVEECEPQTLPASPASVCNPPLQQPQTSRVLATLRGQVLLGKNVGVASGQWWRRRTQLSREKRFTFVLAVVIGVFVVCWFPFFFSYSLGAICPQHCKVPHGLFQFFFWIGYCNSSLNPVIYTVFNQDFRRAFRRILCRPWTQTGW
T2 sequence (P22909 whole entry): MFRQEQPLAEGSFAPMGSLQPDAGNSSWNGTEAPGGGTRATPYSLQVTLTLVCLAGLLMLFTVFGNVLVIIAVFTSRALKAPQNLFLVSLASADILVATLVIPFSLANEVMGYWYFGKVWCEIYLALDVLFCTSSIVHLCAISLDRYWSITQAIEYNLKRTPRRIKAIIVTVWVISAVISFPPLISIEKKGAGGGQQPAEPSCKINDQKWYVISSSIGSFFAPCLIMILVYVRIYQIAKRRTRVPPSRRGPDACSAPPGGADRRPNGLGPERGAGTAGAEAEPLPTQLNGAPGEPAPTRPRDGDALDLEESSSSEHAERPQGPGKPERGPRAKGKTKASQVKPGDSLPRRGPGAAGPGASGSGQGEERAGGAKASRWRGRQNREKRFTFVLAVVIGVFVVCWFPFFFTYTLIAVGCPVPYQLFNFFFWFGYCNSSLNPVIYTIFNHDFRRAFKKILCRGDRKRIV

D(1A) dopamine receptor = D(1A) dopamine receptor (Rattus norvegicus, UniProt P18901); assay: In vitro binding affinity against Dopamine receptor D1 of rat striatum using [3H]SCH-23390
D(2) dopamine receptor = D(2) dopamine receptor (Rattus norvegicus, UniProt P61169); assay: In vitro binding affinity against Dopamine receptor D2 of rat striatum using [3H]raclopride
Chain of D(2) dopamine receptor (P61169 whole entry): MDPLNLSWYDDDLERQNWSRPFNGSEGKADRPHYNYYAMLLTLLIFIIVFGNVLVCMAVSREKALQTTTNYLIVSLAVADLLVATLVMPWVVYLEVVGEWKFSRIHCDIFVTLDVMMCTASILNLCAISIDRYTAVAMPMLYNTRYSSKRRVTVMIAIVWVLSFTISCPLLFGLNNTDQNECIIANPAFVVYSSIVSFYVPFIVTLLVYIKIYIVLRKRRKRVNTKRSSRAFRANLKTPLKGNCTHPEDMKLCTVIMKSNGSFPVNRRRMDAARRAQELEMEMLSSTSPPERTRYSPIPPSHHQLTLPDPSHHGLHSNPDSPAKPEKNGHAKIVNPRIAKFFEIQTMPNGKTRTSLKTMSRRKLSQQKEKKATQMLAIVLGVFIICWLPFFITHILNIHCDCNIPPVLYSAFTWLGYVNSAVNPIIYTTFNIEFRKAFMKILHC

Chain of 5-hydroxytryptamine receptor 2A (P14842 whole entry): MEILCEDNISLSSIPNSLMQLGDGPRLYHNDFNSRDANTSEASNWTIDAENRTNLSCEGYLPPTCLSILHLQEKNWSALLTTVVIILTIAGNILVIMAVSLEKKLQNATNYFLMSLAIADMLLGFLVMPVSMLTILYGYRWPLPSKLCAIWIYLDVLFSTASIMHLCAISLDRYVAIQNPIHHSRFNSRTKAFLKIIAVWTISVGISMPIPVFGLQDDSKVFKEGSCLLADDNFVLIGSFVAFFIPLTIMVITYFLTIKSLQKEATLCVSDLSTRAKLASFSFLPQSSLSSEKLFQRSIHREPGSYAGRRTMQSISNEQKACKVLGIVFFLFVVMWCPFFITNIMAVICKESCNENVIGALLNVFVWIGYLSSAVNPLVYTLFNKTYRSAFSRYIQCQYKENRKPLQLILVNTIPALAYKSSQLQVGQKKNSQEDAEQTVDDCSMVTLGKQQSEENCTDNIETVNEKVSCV
Chain of D(1A) dopamine receptor (P18901 whole entry): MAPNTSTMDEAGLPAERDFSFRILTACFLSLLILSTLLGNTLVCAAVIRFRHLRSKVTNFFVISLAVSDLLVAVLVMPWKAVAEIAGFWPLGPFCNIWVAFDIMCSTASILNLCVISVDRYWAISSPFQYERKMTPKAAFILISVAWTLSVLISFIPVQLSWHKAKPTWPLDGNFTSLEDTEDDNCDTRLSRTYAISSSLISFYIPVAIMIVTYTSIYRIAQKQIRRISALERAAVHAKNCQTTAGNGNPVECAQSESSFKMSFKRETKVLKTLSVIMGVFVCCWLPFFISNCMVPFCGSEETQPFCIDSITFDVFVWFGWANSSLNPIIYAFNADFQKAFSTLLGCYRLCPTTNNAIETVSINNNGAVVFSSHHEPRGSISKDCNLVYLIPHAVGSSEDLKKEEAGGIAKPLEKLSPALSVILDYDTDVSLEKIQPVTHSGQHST

Compound	Ki [1]	Ki [2]	Ki [3]	Ki (D(1A) dopamine receptor)	Ki (D(2) dopamine receptor)
O=C(c1cccc(CN2CCC(c3ccc(Cl)cc3)C2)c1)N1CCCCC1 (stereo not given)	0.046 µM	0.0153 µM	0.044 µM	37.6 µM	0.334 µM
O=C(c1cccc(CN2CCC(c3ccccc3)C2)c1)N1CCCCC1 (stereo not given)	0.32 µM	0.0306 µM	0.024 µM	88.1 µM	0.783 µM
O=C1c2ccccc2CN1CCCCN1CCC(c2ccccc2)C1 (stereo not given)	0.046 µM	0.0115 µM	0.011 µM	1.95 µM	0.077 µM
O=C1c2ccccc2S(=O)(=O)N1CCCCN1CCC(c2ccccc2)C1 (stereo not given)	0.034 µM	0.0027 µM	0.016 µM	12.5 µM	0.195 µM
O=C1c2ccccc2CN1CCCCN1CCC(c2ccc(Cl)cc2)C1 (stereo not given)	0.184 µM	0.0304 µM	0.012 µM	1.62 µM	0.185 µM
O=C1c2ccccc2S(=O)(=O)N1CCCCN1CCC(c2ccc(Cl)cc2)C1 (stereo not given)	0.232 µM	0.0026 µM	0.056 µM	1.57 µM	0.327 µM
O=C1c2ccccc2S(=O)(=O)N1CCCCN1CCC(c2ccc(F)cc2)C1 (stereo not given)	> 0.367 µM	0.0042 µM	0.334 µM	6.67 µM	0.263 µM
